Source: patent US5210089A, “D-rhamnono-1,5-lactone” (Monsanto Company, priority 1992, dated 1993)

Tests used:
[1] = test system: α-rhamnosidase (naringinase); assay: Naringinase assay with p-nitrophenyl α-L-rhamnoside; format: biochemical; settings: for Inhibition (%) at 1 mM, α-rhamnosidase (naringinase): 1 mM compound, p-nitrophenyl α-L-rhamnoside 1.75 mM
Experimental: (§1) Melting points were recorded on a Kofler hot block. Proton nuclear magnetic resonance (δH) spectra were recorded on Varian Gemini 200 (at 200 MHz), Bruker WH 300 (300 MHz), or Bruker AM 500 (500 MHz) spectrometers. Carbon nuclear magnetic resonance (δC) spectra were recorded on a Varian Gemini 200 (50 MHz) or a Bruker 250 (62.9 MHz) spectrometer. Multiplicities were assigned using DEPT sequence on the Gemini and by off resonance decoupling on the Bruker. Spectra run in D2 O were referenced to methanol as an internal standard. All chemical shifts are quoted on the δ-scale. Infrared spectra were recorded on a Perkin-Elmer 297, or on a Perkin-Elmer 781 spectrophotometer. Mass spectra were recorded on VG Micromass 30F, ZAB lF, Masslab 20-250 or Trio-1 GCMS (DB-5 column) spectrometers using desorption chemical ionization (NH3 DCI), electron impact (EI), chemical ionization (NH3 CI) and fast atom bombardment (FAB) techniques, as stated. […] Concentrations were given in g/100 ml. Hydrogenations were run under an atmosphere of hydrogen gas maintained by inflated balloon. Microanalyses were performed by the microanalysis service of the DysonPerrins laboratory, Oxford UK. Thin layer chromatography (t.l.c.) was carried out on aluminum sheets coated with 60F254 silica. Plates were developed using either 5% v/v concentrated sulphuric acid in methanol, 0.2% w/v cerium (IV) sulphate and 5% ammonium molybdate in 2M sulphuric acid and 0.5% ninhydrin in methanol. Flash chromatography was carried out using Sorbsil C60 40/60 silica. Ion-exchange chromatography was performed using Dowex 50W-X8 (H) and Sigma CG 400 (Cl) resins. The resins were washed with 2M hydrochloric acid and 2M sodium hydroxide solution, respectively, and subsequently with distilled water, prior to use. Solvents and commercially available reagents were dried and purified before use according to standard procedures; dichloromethane was refluxed over and distilled from calcium hydride, N,N-dimethylformamide was distilled under reduced pressure from calcium hydride, methanol was distilled from magnesium methoxide, pyridine was distilled from, and stored over, potassium hydroxide and tetrahydrofuran was distilled from a purple solution of sodium benzophenone ketyl immediately before use. Hexane was distilled at 68° C. before use to remove involatile fractions. 2,3-O-Isopropylidene-L-gulono-1,4-lactone (9) [H. Ogura et al., J. Oro. Chem. 37, 72 (1972); G. W. J. Fleet Tetrahedron 45, 319 (1989)]and 2,3-O-isopropylidene-D-gulono-1,4-lactone (15) [L. M. Lerner et al., J. Org. Chem. 33, 1780 (1968)]were prepared from D- and L-Chem. gulonolactones [purchased from the Sigma Chemical Company] as reported previously. See, e.g., Fleet, U.S. Pat. No. 4,861,892. Human liver glycosidases were assayed in the absence and presence [1 mM] of each of the compounds using the appropriate buffered 4-methylumbellifeeryl-glycosides as substrates, as described previously. [B. Winchest et al., Biochem. J. 265, 277 (1990)]. Naringinase was assayed using pnitrophenyl α-L-rhamnoside (1.75 mM) as substrates, according to Romero [C. Romero et al., Anal. Biochem. 149, 566 (1985)].
(§2) The enzymes included human liver glycosidases and naringinase. The latter enzyme is a readily available endo-L-rhamnosidase described by Romero et al., Anal. Biochem. 149, 566 (1985).

β-mannosidase = biological target: T1, β-mannosidase (Homo sapiens, UniProt O00462); assay: Human liver glycosidase assay, β-mannosidase; format: biochemical; design: human liver extracts; from tissue; host or cells: human liver extracts
T1 sequence (O00462 18-879): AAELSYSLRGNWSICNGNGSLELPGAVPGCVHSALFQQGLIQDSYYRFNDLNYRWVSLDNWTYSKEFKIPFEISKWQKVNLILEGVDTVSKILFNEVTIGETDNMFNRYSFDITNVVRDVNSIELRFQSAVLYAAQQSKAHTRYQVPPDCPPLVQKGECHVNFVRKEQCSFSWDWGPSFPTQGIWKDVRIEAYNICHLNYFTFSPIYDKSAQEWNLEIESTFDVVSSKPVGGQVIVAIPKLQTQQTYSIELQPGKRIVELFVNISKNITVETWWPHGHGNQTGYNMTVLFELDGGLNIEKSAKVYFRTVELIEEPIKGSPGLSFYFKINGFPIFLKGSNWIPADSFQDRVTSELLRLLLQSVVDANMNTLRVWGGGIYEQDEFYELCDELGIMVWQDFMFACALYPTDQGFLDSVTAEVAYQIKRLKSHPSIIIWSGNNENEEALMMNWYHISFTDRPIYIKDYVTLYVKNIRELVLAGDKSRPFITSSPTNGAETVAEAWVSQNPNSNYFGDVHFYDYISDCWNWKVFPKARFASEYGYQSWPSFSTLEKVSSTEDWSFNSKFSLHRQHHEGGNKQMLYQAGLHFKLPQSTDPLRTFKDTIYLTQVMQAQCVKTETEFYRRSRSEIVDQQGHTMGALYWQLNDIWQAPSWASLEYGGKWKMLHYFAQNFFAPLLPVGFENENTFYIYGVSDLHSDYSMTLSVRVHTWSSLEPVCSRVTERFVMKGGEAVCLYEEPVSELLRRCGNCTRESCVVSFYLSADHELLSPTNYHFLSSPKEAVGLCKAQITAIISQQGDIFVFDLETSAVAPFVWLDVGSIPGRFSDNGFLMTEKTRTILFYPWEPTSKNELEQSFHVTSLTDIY
Experimental: as §1, with “Chem. 33, 1780 (1968)]were prepared from D- and L-Chem. gulonolactones [purchased from the Sigma Chemical Company] as reported previously. See, e.g., Fleet, U.S. Pat. No. 4,861,892. Human liver glycosidases were assayed in the absence and presence [1 mM] of each of the compounds using the appropriate buffered 4-methylumbellifeeryl-glycosides as substrates, as described previously. [B. Winchest et al., Biochem. J. 265, 277 (1990)]. Naringinase was assayed using pnitrophenyl α-L-rhamnoside (1.75 mM) as substrates, according to Romero [C. Romero et al., Anal. Biochem. 149, 566 (1985)].” left out
as §2

Row | SMILES | Inhibition of α-rhamnosidase (in words) [1] | Inhibition (%) at 1 mM, α-rhamnosidase (naringinase) [1] [%] | Inhibition of β-mannosidase (in words) (β-mannosidase) | IC50 (β-mannosidase) [µM] | inhibition at 1000 µM (β-mannosidase; read-out: Inhibition (%) at 1 mM, β-mannosidase) [%]
1 | C[C@H]1NC(=O)[C@@H](O)[C@@H](O)[C@@H]1O [D-Rhamno-1,5-lactam (6), 6-Deoxy-D-mannono-δ-lactam] | not of α-rhamnosidase | 3 | inhibitor of α- and β-mannosidases |  | 
2 | C[C@@H]1NC(=O)[C@H](O)[C@H](O)[C@H]1O [L-Rhamno-1,5-lactam (8), 6-Deoxy-L-mannono-δ-lactam] | no inhibitory activity | 0 | no inhibitory activity |  | 
3 | O=C1N[C@H](CO)[C@@H](O)[C@H](O)[C@@H]1O [Mannono-1,5-lactam (2), D-mannonolactam] |  | 12 |  | 10 | 99
